According to publication PMC8752738, “A propolis-derived small molecule ameliorates metabolic syndrome in obese mice by targeting the CREB/CRTC2 transcriptional complex” (Nature Communications, 2022):
Several values for one entry are separate records, joined by “and”; a condition that tells them apart may be missing. Identical values can stand only once.

Legend:
[1] = tested on: promoter occupancy in primary hepatocytes; assay: ChIP assays; type: cell-based, mouse; settings: for ChIP: CBP, CRE-PGC1a, mean / ChIP: CBP, CRE-Pck1, mean: N=4
Pharmacokinetic studies = type: in vivo, mouse; settings: ICR mice; for half-life: ICR
Protocol: Male ICR mice (18–20 g, n = 3 in each group) were randomly assigned to treatment groups. After 12-h of fasting, baseline blood was collected into a tube containing ethylenediaminetetraacetic acid (EDTA). Animals were then treated orally with compound A57 or APC (p.o.: 20 mg/kg, in DMSO/0.5% HPMC 5/95, v/v) and intravenous injected the selected compounds (i.v.: 2 mg/kg, in DMSO/EtOH/PEG300/NaCl 5/5/40/50, v/v/v/v). Subsequently, blood samples per mouse were collected at 0.25, 0.5, 1, 2, 4, 8, 24 h for p.o.-treated groups and 0.05, 0.25, 0.75, 2, 4, 6, 8, 24 h for i.v.-treated groups. All samples were centrifuged at 12,000 rpm for 3 min, and the plasma was harvested. Aliquots of plasma samples were stored at −80 °C until analysis. The selected compounds' serum concentrations were determined by liquid chromatography/tandem mass spectrometry (LC–MS–MS). Pharmacokinetic parameters were determined from the selected compounds' serum concentrations by noncompartmental methods using WinNonLin professional version 4.1 (Pharsight Corp., Mountain View, CA).

Daily food intake = type: in vivo, mouse; settings: for foodintake in DIO, mean / foodintake in DIO: DIO mice; for foodintake in DIO, mean: group mean, n=6; for foodintake in DIO: individual values; for foodintake of db/db: single animals; for foodintake of db/db, group mean: mean of APC group, N=5
[2] = mean over Gluc0, Gluc30, Gluc60
[3] = primary hepatocytes exposed to glucagon, APC 10 μM
[4] = male, mouse, plasma, iv, i.v. 2 mg/kg
[5] = male, mouse, plasma, po, p.o. 20 mg/kg

CC(C)=CCc1cc(C=CC(=O)O)cc(CC=C(C)C)c1O [APC, 3,5-diprenyl-4-hydroxycinnamic acid]
ChIP CREB in LXRa promoter, Input % ([1]; ChIP-CREB, LXRa promoter, individual replicates, n=4): 48.6099 Input % and 36.4614 Input % and 38.9243 Input % and 32.1584 Input %
ChIP CREB in LXRa promoter, group mean (Mean 1) ([1]; ChIP-CREB, LXRa promoter, mean of N=4): 39.04 Input %
ChIP CRTC2 in LXRa promoter, Input % ([1]; ChIP-CRTC2, LXRa promoter, individual replicates, n=4): 91.9916 Input % and 76.2395 Input % and 65.9044 Input % and 83.3167 Input %
ChIP CRTC2 in LXRa promoter, group mean (Mean 1) ([1]; ChIP-CRTC2, LXRa promoter, mean of N=4): 79.36 Input %
ChIP-IgG in LXRa promoter, Input % ([1]; ChIP-IgG (control antibody), LXRa promoter, individual replicates, n=4): 0.8383 Input % and 0.5702 Input % and 0.8279 Input % and 1.761 Input %
ChIP-IgG in LXRa promoter, group mean (Mean 1) ([1]; ChIP-IgG (control antibody), LXRa promoter, mean of N=4): 0.9995 Input %
ChIP: LXRa recuited in Srebf1 promoter, relative enrichment folds, group mean (Mean 1) ([1]; ChIP-LXRa, Srebf1 promoter, mean of N=4): 0.4914 fold
ChIP: RXRa recuited in Srebf1 promoter, relative enrichment folds, group mean (Mean 1) ([1]; ChIP-RXRa, Srebf1 promoter, mean of N=4): 0.5838 fold
ChIP: LXRa recuited in Srebf1 promoter, relative enrichment folds ([1]; ChIP:LXRa, Srebf1 promoter, individual replicates, n=4): 0.5482 fold and 0.5209 fold and 0.4024 fold and 0.494 fold
ChIP: RXRa recuited in Srebf1 promoter, relative enrichment folds ([1]; ChIP:RXRa, Srebf1 promoter, individual replicates, n=4): 0.4207 fold and 0.6691 fold and 0.5173 fold and 0.7279 fold
ChIP: CBP, CRE-PGC1a, mean ([1]; Gluc0): 0.891
ChIP: CBP, CRE-Pck1, mean ([1]; Gluc0): 0.921
ChIP: CBP, CRE-PGC1a, mean ([1]; Gluc30): 0.574
ChIP: CBP, CRE-Pck1, mean ([1]; Gluc30): 0.749
ChIP: CBP, CRE-PGC1a, mean ([1]; Gluc60): 0.582
ChIP: CBP, CRE-Pck1, mean ([1]; Gluc60): 0.834
Mean of APC_ChIP: CBP, CRE-G6pc [1, 2]: 1.496
Mean of ChIP: CBP & APC, CRE-Pck1 [1, 2]: 0.835
Mean of ChIP: CBP & APC, CRE-Pgc-1a [1, 2]: 0.682
CRTC2 recruited to CRE sites of G6pc, Pgc-1α and Pck1 promoters (ChIP) [1, 3]: significantly attenuated
occupancy of CREB or CBP at CRE sites (ChIP) [1, 3]: little effect
LXRα and RXRα recruited to LXRE element of Srebf1 promoter (ChIP) ([1]; primary hepatocytes, APC 10 μM): reduced
occupancy of CRTC2 on half CRE site of Lxrα promoter (ChIP) ([1]; primary hepatocytes, glucagon, APC 10 μM): attenuated
Fpo (Pharmacokinetic studies; p.o. 20 mg/kg vs i.v. 2 mg/kg): 14.4%
T1/2 (Pharmacokinetic studies; p.o. 20 mg/kg, 20 mg/kg): 3.29 h
half-life (Pharmacokinetic studies; male, mouse, plasma, iv, 2 mg/kg, i.v. 2 mg/kg): 5.89 h
half-life (Pharmacokinetic studies; male, mouse, plasma, po, 20 mg/kg, p.o. 20 mg/kg): 2.11 h
AUC(0-t) (Pharmacokinetic studies; [4]): 428 ng·h/mL
MRT (Pharmacokinetic studies; [4]): 2.46 h
clearance (Pharmacokinetic studies; [4]): 78 mL/min/kg
AUC(0-t) (Pharmacokinetic studies; [5]): 616 ng·h/mL
Cmax (Pharmacokinetic studies; [5]): 510 ng/mL
MRT (Pharmacokinetic studies; [5]): 4.33 h
Tmax (Pharmacokinetic studies; [5]): 0.25 h
foodintake in DIO, mean (Daily food intake; APC 10mg/kg): 3.935 g/mouse/day
foodintake in DIO (Daily food intake; APC 10mg/kg): 3.44 g/mouse/day and 4.55 g/mouse/day and 3.83 g/mouse/day and 3.87 g/mouse/day and 4.39 g/mouse/day and 3.53 g/mouse/day
foodintake in DIO, mean (Daily food intake; APC 20mg/kg): 3.517 g/mouse/day
foodintake in DIO (Daily food intake; APC 20mg/kg): 3.89 g/mouse/day and 3.58 g/mouse/day and 3.67 g/mouse/day and 3.06 g/mouse/day and 3.73 g/mouse/day and 3.17 g/mouse/day
foodintake of db/db (Daily food intake; db/db mice, day 1): 6.30 g/per mouse/24h and 5.90 g/per mouse/24h and 7.80 g/per mouse/24h and 7.20 g/per mouse/24h and 6.43 g/per mouse/24h
foodintake of db/db, group mean (Daily food intake; db/db mice, day 2): 6.34 g/per mouse/24h
foodintake of db/db (Daily food intake; db/db mice, day 2): 5.90 g/per mouse/24h and 6.90 g/per mouse/24h and 7.10 g/per mouse/24h and 7.50 g/per mouse/24h and 6.30 g/per mouse/24h
foodintake of db/db, group mean (Daily food intake; db/db mice, day 3): 6.44 g/per mouse/24h
foodintake of db/db (Daily food intake; db/db mice, day 3): 6.10 g/per mouse/24h and 7.30 g/per mouse/24h and 5.80 g/per mouse/24h and 7.20 g/per mouse/24h and 6.20 g/per mouse/24h
foodintake of db/db, group mean (Daily food intake; db/db mice, day 4): 6.5 g/per mouse/24h
foodintake of db/db (Daily food intake; db/db mice, day 4): 7.40 g/per mouse/24h and 6.30 g/per mouse/24h (2×) and 6.20 g/per mouse/24h and 5.90 g/per mouse/24h
foodintake of db/db, group mean (Daily food intake; db/db mice, day 5): 6.68 g/per mouse/24h
foodintake of db/db (Daily food intake; db/db mice, day 5): 5.70 g/per mouse/24h and 7.20 g/per mouse/24h and 6.80 g/per mouse/24h and 7.90 g/per mouse/24h and 5.80 g/per mouse/24h
foodintake of db/db, group mean (Daily food intake; db/db mice, day 6): 6.9 g/per mouse/24h
foodintake of db/db (Daily food intake; db/db mice, day 6): 8.00 g/per mouse/24h and 6.80 g/per mouse/24h and 6.10 g/per mouse/24h and 7.20 g/per mouse/24h and 6.40 g/per mouse/24h
foodintake of db/db, column mean over days 1-6 (Daily food intake; db/db mice, Mean of APC, two-way RM ANOVA): 6.737 g/per mouse/24h
daily food intake (Daily food intake; obese mice, 2 weeks of APC injection): no significant effects
